From US9475795B2 (TAKEDA PHARMACEUTICAL COMPANY LIMITED, priority 2012, dated 2016)

Target: human PKR1 receptors (Homo sapiens (Human), UniProt Q8TCW9)
Test: PKR1 antagonist assay: block of PK1-mediated intracellular calcium release (FLIPR)
Type: cell-based
Conditions: RBL2H3 cells expressing human PKR1; 10 min preincubation; stimulation with PK1 at EC80; calcium fluorescence
Method: Prokineticin receptor 1 (PKR1) antagonists may be functionally assessed by measurement of change in intracellular calcium levels induced by Gq mediated increase in inositol triphosphate (IP3) levels. The ability of a compound to block the intracellular release of calcium mediated by PK1 in RBL2H3 cells expressing human PKR1 receptors is determined as a measure of the compound's antagonist activity in vitro.
Approximately 10,000 cells per assay well are seeded in normal culture medium in a 384 well plate (Corning). […]
To test for antagonist activity, test compounds at a final concentration range between 0.32 nM-10 μM (diluted in assay buffer) are added to the assay wells and allowed to incubate for 10 minutes prior to stimulation with PK1. After incubation with test compounds the assay plate is placed in a FLIPR Tetra (Molecular Devices) and PK1 (diluted in assay buffer) is added at the determined EC80 concentration (final). Ligand-dependent changes in intracellular calcium levels are determined by measuring changes in fluorescence of the dye at […] following excitation at 485 nm.

Sequence of human PKR1 receptors (Q8TCW9 whole entry): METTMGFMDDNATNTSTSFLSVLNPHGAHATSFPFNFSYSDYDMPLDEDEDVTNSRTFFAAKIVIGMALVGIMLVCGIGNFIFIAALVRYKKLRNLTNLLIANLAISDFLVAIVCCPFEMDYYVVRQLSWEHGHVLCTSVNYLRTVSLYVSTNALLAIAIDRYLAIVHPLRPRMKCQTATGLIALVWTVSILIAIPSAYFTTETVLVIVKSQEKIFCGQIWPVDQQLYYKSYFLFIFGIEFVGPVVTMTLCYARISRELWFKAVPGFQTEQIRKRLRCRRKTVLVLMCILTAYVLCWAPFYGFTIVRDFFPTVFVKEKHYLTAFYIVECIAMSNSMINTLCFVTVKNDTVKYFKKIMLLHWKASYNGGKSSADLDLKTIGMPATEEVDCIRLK

- IC50: 900 nM
Structure (SMILES): Cc1nn(C)c(C)c1S(=O)(=O)N1CCC(N(C)c2ccc(Cl)cc2)CC1 [Example 53]
